row,Structure (SMILES),melting point
1,"CS(=O)(=O)c1ccc(-c2cnn(CC(F)(F)F)c(=O)c2NCC2CC2)cc1 [Example 302, 2-(2,2,2-Trifluoroethyl)-4-(cyclopropylmethylamino)-5-[4-(methylsulfonyl)phenyl]-3(2H)-pyridazinone]",145 to 146 °C
2,"CS(=O)(=O)c1ccc(-c2cnn(CC(F)(F)F)c(=O)c2NC2CCc3ccccc32)cc1 (centres unmarked) [Example 303, 2-(2,2,2-Trifluoroethyl)-4-(2,3-dihydro-1H-inden-1-ylamino)-5-[4-(methylsulfonyl)phenyl]-3(2H)-pyridazinone]",155 to 158 °C
3,"CS(=O)(=O)c1ccc(-c2cnn(CC(F)(F)F)c(=O)c2NCCCO)cc1 [Example 305, 2-(2,2,2-Trifluoroethyl)-4-(3-hydroxypropylamino)-5-[4-(methylsulfonyl)phenyl]-3(2H)-pyridazinone]",152 to 154 °C
4,"C[C@@H](O)CNc1c(-c2ccc(S(C)(=O)=O)cc2)cnn(CC(F)(F)F)c1=O [Example 307, 2-(2,2,2-Trifluoroethyl)-4-(2R-hydroxylpropylamino)-5-[4-(methylsulfonyl)phenyl]3(2H)-pyridazinone]",140 to 142 °C
5,"CS(=O)(=O)c1ccc(-c2cnn(CC(F)(F)F)c(=O)c2Nc2ccccc2)cc1 [Example 311, 2-(2,2,2-Trifluoroethyl)-4-anilino-5-[4-(methylsulfonyl)phenyl]-3(2H)-pyridazinone]",154 to 156 °C
6,"CS(=O)(=O)c1ccc(-c2cnn(CC(F)(F)F)c(=O)c2Nc2cc(F)cc(F)c2F)cc1 [Example 315, 2-(2,2,2-Trifluoroethyl)-4-(2,3,5-trifluoroanilino)-5-[4-(methylsulfonyl)phenyl]-3(2H)-pyridazinone]",190 to 194 °C
7,"CS(=O)(=O)c1ccc(-c2cnn(CC(F)(F)F)c(=O)c2Nc2ccc(F)cc2)cc1 [Example 316, 2-(2,2,2-Trifluoroethyl)-4-(4-fluoroanilino)-5-[4-(methylsulfonyl)phenyl]-3(2H)-pyridazinone]",158 to 160 °C
8,"CS(=O)(=O)c1ccc(-c2cnn(Cc3ccccc3)c(=O)c2-c2ccc3c(c2)COC3=O)cc1 [Example 319, 2-Benzyl-4-(1-oxo-1,3-dihydro-2-benzofuran-5-yl)-5-[4-(methylsulfonyl)phenyl]-3(2H)-pyridazinone]",> 250 °C
9,"CS(=O)(=O)c1ccc(-c2cnn(-c3ccc(F)cc3)c(=O)c2N2CCCC2)cc1 [Example 356, 2-(4-Fluorophenyl)-4-(1-pyrrolidinyl)-5-[4-(methylsulfonyl)phenyl]-3(2H)-pyridazinone]",192 to 195 °C
10,"Cc1ccc(Sc2c(-c3ccc(S(C)(=O)=O)cc3)cnn(-c3cccc(Cl)c3)c2=O)cc1 [Example 357, 2-(3-Chlorophenyl)-4-(4-methylphenylthio)-5-[4-(methylsulfonyl)phenyl]-3(2H)-pyridazinone]",178 °C
11,"CS(=O)(=O)c1ccc(-c2cnn(-c3cccc(Cl)c3)c(=O)c2SCc2ccccc2)cc1 [Example 359, 2-(3-Chlorophenyl)-4-(phenylmethylthio)-5-[4-(methylsulfonyl)phenyl]-3(2H)-pyridazinone]",142 to 145 °C
12,"CS(=O)(=O)c1ccc(-c2cnn(-c3cccc(Cl)c3)c(=O)c2SCc2ccco2)cc1 [Example 360, 2-(3-Chlorophenyl)-4-(2-furylmethylthio)-5-[4-(methylsulfonyl)phenyl]-3(2H)-pyridazinone]",140 to 149 °C
13,"CS(=O)(=O)c1ccc(-c2cnn(-c3ccc(F)cc3)c(=O)c2Cc2ccc(F)cc2)cc1 [Example 377, 2-(4-Fluorophenyl)-4-(4-fluorobenzyl)-5-[4-(methylsulfonyl)phenyl]-3(2H)-pyridazinone]",175 to 177 °C
14,"Cc1cc(-c2c(-c3ccc(S(N)(=O)=O)cc3)cnn(-c3ccc(F)c(Cl)c3)c2=O)ccc1F [Example 389, 2-(3-Chloro-4-fluorophenyl)-4-(4-fluoro-3-methylphenyl)-5-[4-(aminosulfonyl)phenyl]-3(2H)-pyridazinone]",243 to 245 °C
15,"CS(=O)(=O)c1ccc(-c2cnn(-c3ccc(F)cc3)c(=O)c2OCCC2CC2)cc1 [Example 417, 2-(4-Fluorophenyl)-4-(2-cyclopropyl-1-ethoxy)-5-[4-(methylsulfonyl)phenyl]-3(2H)-pyridazinone]",111 to 117 °C
16,"CC(CCOc1c(-c2ccc(S(C)(=O)=O)cc2)cnn(-c2ccc(F)c(F)c2)c1=O)C(F)(F)F (centres unmarked) [Example 435, 2-(3,4-Difluorophenyl)-4-(3-trifluoromethyl-1-butoxy)-5-[4-(methylsulfonyl)phenyl]-3(2H)-pyridazinone]",126 to 128 °C
17,"CCOc1c(-c2ccc(S(C)(=O)=O)cc2)cnn(-c2ccc(F)c(F)c2)c1=O [Example 436, 2-(3,4-Difluorophenyl)-4-ethoxy-5-[4-(methylsulfonyl)phenyl]-3(2H)-pyridazinone]",121 to 123 °C
18,"CS(=O)(=O)c1ccc(-c2cnn(-c3ccc(F)c(F)c3)c(=O)c2OCCC2CCCC2)cc1 [Example 439, 2-(3,4-Difluorophenyl)-4-(2-cyclopentyl-1-ethoxy)-5-[4-(methylsulfonyl)phenyl]-3(2H)-pyridazinone]",100 to 101 °C
19,"CS(=O)(=O)c1ccc(-c2cnn(-c3ccc(F)cc3)c(=O)c2-c2cccc(F)c2)cc1 [Example 458, 2-(4-Fluorophenyl)-4-(3-fluorophenyl)-5-[4-(methylsulfonyl)phenyl]-3(2H)-pyridazinone]",199 to 201 °C
20,"CON=C(C)COc1c(-c2ccc(S(C)(=O)=O)cc2)cnn(-c2ccc(F)c(F)c2)c1=O [Example 461, 2-(3,4-Difluorophenyl)-4-[2-(methoxyimino)-1-propoxy]-5-[4-(methylsulfonyl)phenyl]-3(2H)-pyridazinone]",143 to 145 °C
21,"CC(=O)CCOc1c(-c2ccc(S(C)(=O)=O)cc2)cnn(-c2ccc(F)cc2)c1=O [Example 468, 2-(4-Fluorophenyl)-4-(3-oxo-1-butoxy)-5-[4-(methylsulfonyl)phenyl]-3(2H)-pyridazinone]",133 to 136 °C
22,"CC(C)(O)CCOc1c(-c2ccc(S(N)(=O)=O)cc2)cnn(-c2ccc(F)cc2)c1=O [Example 470, 2-(4-Fluorophenyl)-4-(3-hydroxy-3-methyl-1-butoxy)-5-[4-(aminosulfonyl)phenyl]-3(2H)-pyridazinone]",163 to 164 °C
23,"CC(C)(O)CCOc1c(-c2ccc(S(N)(=O)=O)cc2)cnn(-c2ccc(F)c(F)c2)c1=O [Example 472, 2-(3,4-Difluorophenyl)-4-(3-hydroxy-3-methyl-1-butoxy)-5-[4-(aminosulfonyl)phenyl]-3(2H)-pyridazinone]",181 °C
24,"CC(C)(O)CCOc1c(-c2ccc(S(C)(=O)=O)cc2)cnn(-c2ccc(F)c(Cl)c2)c1=O [Example 473, 2-(3-Chloro-4-fluorophenyl)-4-(3-hydroxy-3-methyl-1-butoxy)-5-[4-(methylsulfonyl)phenyl]-3(2H)-pyridazinone]",108 to 110 °C

# The remaining lines, values ahead:
row,melting point,Structure (SMILES)
1,160 to 161 °C,"CS(=O)(=O)c1ccc(-c2cnn(CC(F)(F)F)c(=O)c2N2CCCCC2)cc1 [Example 304, 2-(2,2,2-Trifluoroethyl)-4-(1-piperidinyl)-5-[4-(methylsulfonyl)phenyl]-3(2H)-pyridazinone]"
2,172 to 174 °C,"CS(=O)(=O)c1ccc(-c2cnn(CC(F)(F)F)c(=O)c2NCCC#N)cc1 [Example 308, 2-(2,2,2-Trifluoroethyl)-4-(2-cyanoethylamino)-5-[4-(methylsulfonyl)phenyl]-3(2H)-pyridazinone]"
3,206 to 208 °C,"COc1cc(Nc2c(-c3ccc(S(C)(=O)=O)cc3)cnn(CC(F)(F)F)c2=O)cc(C(F)(F)F)c1 [Example 310, 2-(2,2,2-Trifluoroethyl)-4-[3-methoxy-5-(trifluoromethyl)anilino]-5-[4-(methylsulfonyl)phenyl]-3(2H)-pyridazinone]"
4,112 to 114 °C,"COc1c(-c2ccc(S(C)(=O)=O)cc2)cnn(-c2cccc(Cl)c2)c1=O [Example 331, 2-(3-Chlorophenyl)-4-methoxy-5-[4-(methylsulfonyl)phenyl]-3(2H)-pyridazinone]"
5,163 to 164 °C,"CC(C)COc1c(-c2ccc(S(N)(=O)=O)c(F)c2)cnn(CC(F)(F)F)c1=O [Example 382, 2-(2,2,2-Trifluoroethyl)-4-(2-methylpropoxy)-5-[3-fluoro-4-(aminosulfonyl)phenyl]-3(2H)-pyridazinone]"
6,120 to 123 °C,"NS(=O)(=O)c1ccc(-c2cnn(Cc3ccccc3)c(=O)c2Cc2ccc(F)cc2)cc1 [Example 383, 2-Benzyl-4-(4-fluorobenzyl)-5-[4-(aminosulfonyl)phenyl]-3(2H)-pyridazinone]"
7,166 to 167 °C,"CS(=O)(=O)c1ccc(-c2cnn(-c3ccc(F)cc3)c(=O)c2OCC2CC2)cc1 [Example 416, 2-(4-Fluorophenyl)-4-cyclopropylmethoxy-5-[4-(methylsulfonyl)phenyl]-3(2H)-pyridazinone]"
8,102 to 103 °C,"CC(C)CCC(C)Oc1c(-c2ccc(S(C)(=O)=O)cc2)cnn(-c2ccc(F)cc2)c1=O (centres unmarked) [Example 429, 2-(4-Fluorophenyl)-4-(5-methyl-2-hexyloxy)-5-[4-(methylsulfonyl)phenyl]-3(2H)-pyridazinone]"
9,90 to 92 °C,"CCCC(CCOc1c(-c2ccc(S(C)(=O)=O)cc2)cnn(-c2ccc(F)cc2)c1=O)SC (centres unmarked) [Example 433, 2-(4-Fluorophenyl)-4-(3-methylthio-1-hexyloxy)-5-[4-(methylsulfonyl)phenyl]-3(2H)-pyridazinone]"
10,205 to 207 °C,"CS(=O)(=O)c1ccc(-c2cnn(CC(O)c3ccccc3)c(=O)c2-c2ccc(F)cc2)cc1 (centres unmarked) [Example 441, 2-(2-Hydroxy-2-phenylethyl)-4-(4-fluorophenyl)-5-[4-(methylsulfonyl)phenyl]-3(2H)-pyridazinone]"
11,113 to 115 °C,"COc1c(-c2ccc(S(C)(=O)=O)cc2)cnn(-c2ccc(F)c(F)c2)c1=O [Example 453, 2-(3,4-Difluorophenyl)-4-methoxy-5-[4-(methylsulfonyl)phenyl]-3(2H)-pyridazinone]"
